# From the NIST ThermoML archive (doi:10.1016/j.fluid.2018.08.011)
# Where “and” joins values, the source holds several entries; their conditions need not be identical. Equal entries are not always repeated. ± gives the expanded uncertainty stated by the source.
# How the values were obtained:
# [1] = cn = amount concentration of the nth substance listed, in mol/dm3; details: Drop volume
# [2] = for surface tension liquid-gas: Drop volume; for mass density / speed of sound: 101.3 kPa, Liquid; for mass density: Vibrating tube method; for speed of sound: Frequency=3 MHz, Single path-length method
structure (smiles),measurement,setting,value
CCCCCCCCCCCCO[C@@H]1O[C@H](CO)[C@@H](O)[C@H](O)[C@H]1O [dodecyl beta.-D-glucopyranoside] + O,surface tension liquid-gas,"[1]; 310.15 K, c1 = 2.33e-05",52.97 ± 0.25 mN/m
same,surface tension liquid-gas,"[1]; 310.15 K, c1 = 3.58e-05",46.13 ± 0.23 mN/m
same,surface tension liquid-gas,"[1]; 310.15 K, c1 = 5.16e-05",41.28 ± 0.22 mN/m
same,surface tension liquid-gas,"[1]; 310.15 K, c1 = 6.49e-05",38.47 ± 0.21 mN/m
same,surface tension liquid-gas,"[1]; 310.15 K, c1 = 7.97e-05",35.61 ± 0.2 mN/m
same,surface tension liquid-gas,"[1]; 310.15 K, c1 = 9.31e-05",34.42 ± 0.19 mN/m
same,surface tension liquid-gas,"[1]; 310.15 K, c1 = 0.000106",33.04 ± 0.19 mN/m
same,surface tension liquid-gas,"[1]; 310.15 K, c1 = 0.000123",31.7 ± 0.19 mN/m
same,surface tension liquid-gas,"[1]; 310.15 K, c1 = 0.000131",31.19 ± 0.19 mN/m
same,surface tension liquid-gas,"[1]; 310.15 K, c1 = 0.000146",29.75 ± 0.18 mN/m
same,surface tension liquid-gas,"[1]; 310.15 K, c1 = 0.000162",30.12 ± 0.18 mN/m
same,surface tension liquid-gas,"[1]; 310.15 K, c1 = 0.000169",29.25 ± 0.18 mN/m
same,surface tension liquid-gas,"[1]; 310.15 K, c1 = 0.000177",29.51 ± 0.18 mN/m
same,surface tension liquid-gas,"[1]; 310.15 K, c1 = 0.000187",29.14 ± 0.18 mN/m
same,surface tension liquid-gas,"[1]; 310.15 K, c1 = 0.000198",29.09 ± 0.18 mN/m
same,surface tension liquid-gas,"[1]; 310.15 K, c1 = 0.00021",29.52 ± 0.18 mN/m
same,surface tension liquid-gas,"[1]; 310.15 K, c1 = 0.000216",29.36 ± 0.18 mN/m
same,surface tension liquid-gas,"[1]; 310.15 K, c1 = 0.000227",29.03 ± 0.18 mN/m
same,surface tension liquid-gas,"[1]; 310.15 K, c1 = 0.000241",29.02 ± 0.18 mN/m
same,surface tension liquid-gas,"[1]; 310.15 K, c1 = 0.000258",29.1 ± 0.18 mN/m
same,surface tension liquid-gas,"[1]; 323.15 K, c1 = 2.33e-05",52.98 ± 0.24 mN/m
same,surface tension liquid-gas,"[1]; 323.15 K, c1 = 3.58e-05",46.38 ± 0.23 mN/m
same,surface tension liquid-gas,"[1]; 323.15 K, c1 = 5.16e-05",41.5 ± 0.22 mN/m
same,surface tension liquid-gas,"[1]; 323.15 K, c1 = 6.49e-05",38.5 ± 0.2 mN/m
same,surface tension liquid-gas,"[1]; 323.15 K, c1 = 9.31e-05",35.04 ± 0.2 mN/m
same,surface tension liquid-gas,"[1]; 323.15 K, c1 = 0.000106",33.77 ± 0.19 mN/m
same,surface tension liquid-gas,"[1]; 323.15 K, c1 = 0.000123",32.19 ± 0.19 mN/m
same,surface tension liquid-gas,"[1]; 323.15 K, c1 = 0.000131",31.35 ± 0.19 mN/m
same,surface tension liquid-gas,"[1]; 323.15 K, c1 = 0.000146",29.99 ± 0.18 mN/m
same,surface tension liquid-gas,"[1]; 323.15 K, c1 = 0.000162",29.72 ± 0.18 mN/m
same,surface tension liquid-gas,"[1]; 323.15 K, c1 = 0.000169",28.68 ± 0.18 mN/m
same,surface tension liquid-gas,"[1]; 323.15 K, c1 = 0.000177",28.83 ± 0.18 mN/m
same,surface tension liquid-gas,"[1]; 323.15 K, c1 = 0.000187",28.4 ± 0.18 mN/m
same,surface tension liquid-gas,"[1]; 323.15 K, c1 = 0.000198",28 ± 0.17 mN/m
same,surface tension liquid-gas,"[1]; 323.15 K, c1 = 0.00021",28.11 ± 0.17 mN/m
same,surface tension liquid-gas,"[1]; 323.15 K, c1 = 0.000216",28.07 ± 0.18 mN/m
same,surface tension liquid-gas,"[1]; 323.15 K, c1 = 0.000227",28.56 ± 0.17 mN/m
same,surface tension liquid-gas,"[1]; 323.15 K, c1 = 0.000241",28.29 ± 0.18 mN/m
same,surface tension liquid-gas,"[1]; 323.15 K, c1 = 0.000258",27.87 ± 0.18 mN/m
O [water],surface tension liquid-gas,[2]; 283.15 K,73.92 ± 0.28 mN/m
same,mass density,[2]; 283.15 K,999.707 ± 0.033 kg/m3
same,speed of sound,[2]; 285.65 K,1457.3 ± 0.24 m/s
same,mass density,[2]; 285.65 K,999.444 ± 0.033 kg/m3
same,speed of sound,[2]; 290.65 K,1474.7 ± 0.23 m/s
same,mass density,[2]; 290.65 K,998.689 ± 0.034 kg/m3
same,speed of sound,[2]; 295.65 K,1490 ± 0.23 m/s
same,mass density,[2]; 295.65 K,997.658 ± 0.034 kg/m3
same,surface tension liquid-gas,[2]; 298.15 K,71.77 ± 0.28 mN/m
same,speed of sound,[2]; 300.65 K,1503.3 ± 0.23 m/s
same,mass density,[2]; 300.65 K,996.376 ± 0.035 kg/m3
same,speed of sound,[2]; 305.65 K,1514.9 ± 0.23 m/s
same,mass density,[2]; 305.65 K,994.867 ± 0.036 kg/m3
same,surface tension liquid-gas,[2]; 310.15 K,70.13 ± 0.27 mN/m and 69.93 ± 0.39 mN/m
same,speed of sound,[2]; 310.65 K,1524.7 ± 0.23 m/s
same,mass density,[2]; 310.65 K,993.147 ± 0.036 kg/m3
same,speed of sound,[2]; 313.15 K,1529 ± 0.23 m/s
same,speed of sound,[2]; 315.65 K,1533 ± 0.23 m/s
same,mass density,[2]; 315.65 K,991.235 ± 0.037 kg/m3
same,speed of sound,[2]; 318.15 K,1536.6 ± 0.23 m/s
same,speed of sound,[2]; 320.65 K,1539.8 ± 0.23 m/s
same,mass density,[2]; 320.65 K,989.14 ± 0.038 kg/m3
same,surface tension liquid-gas,[2]; 323.15 K,68.15 ± 0.27 mN/m and 67.79 ± 0.39 mN/m
same,mass density,[2]; 323.15 K,988.029 ± 0.039 kg/m3
O [water] + CCCCCCCCCCCCO[C@@H]1O[C@H](CO)[C@@H](O)[C@H](O)[C@H]1O,surface tension liquid-gas,"[1]; 310.15 K, c2 = 0",69.93 ± 0.27 mN/m
same,surface tension liquid-gas,"[1]; 323.15 K, c2 = 0",67.79 ± 0.27 mN/m
